Read-outs that look alike come from different tables or passages of the source.
Legend:
[1] = target: T1, gamma glutamyl cysteine synthetase (Rattus norvegicus, UniProt P19468); conditions: cited from earlier work
T1 construct: host or cells: rat brain in vivo
T1 sequence (P19468 1-637): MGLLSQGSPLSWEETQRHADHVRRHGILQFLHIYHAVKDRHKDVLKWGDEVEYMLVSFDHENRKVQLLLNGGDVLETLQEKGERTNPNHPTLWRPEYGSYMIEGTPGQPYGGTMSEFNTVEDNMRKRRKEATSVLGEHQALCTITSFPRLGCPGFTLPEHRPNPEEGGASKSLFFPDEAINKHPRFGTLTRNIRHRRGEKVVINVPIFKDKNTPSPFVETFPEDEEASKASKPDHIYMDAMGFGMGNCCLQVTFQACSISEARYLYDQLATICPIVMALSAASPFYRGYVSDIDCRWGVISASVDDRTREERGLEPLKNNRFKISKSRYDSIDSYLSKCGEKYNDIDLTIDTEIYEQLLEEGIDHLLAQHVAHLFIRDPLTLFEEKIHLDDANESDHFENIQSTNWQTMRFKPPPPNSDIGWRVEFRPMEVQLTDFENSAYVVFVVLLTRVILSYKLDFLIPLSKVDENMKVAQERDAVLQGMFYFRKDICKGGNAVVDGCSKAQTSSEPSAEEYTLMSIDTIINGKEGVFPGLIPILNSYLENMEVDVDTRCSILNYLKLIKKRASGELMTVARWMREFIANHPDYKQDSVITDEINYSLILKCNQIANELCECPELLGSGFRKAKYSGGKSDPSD

glutamine synthetase [2] = target: T2, glutamine synthetase (Rattus norvegicus, UniProt P09606); conditions: cited from earlier work
glutamine synthetase [3] = target: T2, glutamine synthetase; conditions: low dose intravenous, 24 hours prior to sacrifice
Experimental: (§1) The Hawkins data is represented with closed circles whereas the comparison tested rats are represented with “+” and open circle symbols. The monkey results are shown with triangles. N represents the number of animals studied.
(§2) The monkeys who received LSMSO at doses of 5 and 10 mg/kg were anesthetized for a four hour period prior to sacrifice.

[4] = low doses
From the text: As stated above, one unfortunate and well known side effect of MSO is that it is a convulsant.

[5] = rats; did not affect MSO's inhibition of GS; cited from earlier work
[6] = cited from earlier work
[7] = rats vs dogs; cited from earlier work
[8] = target: γ-glutamylcysteine synthetase (Rattus norvegicus, UniProt P19468); conditions: cited from earlier work
[9] = cited from earlier work; remark: listed apart in the source
[10] = portacaval anastomosis rats infused with ammonium acetate, 150 mg/kg pretreatment; cited from earlier work
[11] = target: cortical glutamine synthetase (Rattus norvegicus, UniProt P09606); conditions: model of acute hyperammonemia; cited from earlier work
[12] = cited from earlier work; remark: listed apart in the source
glutamine synthetase [13] = conditions: cited from earlier work
glutamine synthetase [14] = target: T2, glutamine synthetase; conditions: MSO pretreatment, cited from earlier work
glutamine synthetase [15] = target: glutamine synthetase (Macaca mulatta, UniProt F7CAM5)
Experimental: as §1, §2

[16] = rats, cited from earlier work; for paroxysmal symptoms: 100 mg/kg and 50 mg/kg, 20 hours; for brain glutamine level versus paroxysmal dose: 100 and 50 mg/kg vs 200 mg/kg, 20 hours after administration
[17] = mice; cited from earlier work

T2 sequence (P09606 2-373 limits assumed): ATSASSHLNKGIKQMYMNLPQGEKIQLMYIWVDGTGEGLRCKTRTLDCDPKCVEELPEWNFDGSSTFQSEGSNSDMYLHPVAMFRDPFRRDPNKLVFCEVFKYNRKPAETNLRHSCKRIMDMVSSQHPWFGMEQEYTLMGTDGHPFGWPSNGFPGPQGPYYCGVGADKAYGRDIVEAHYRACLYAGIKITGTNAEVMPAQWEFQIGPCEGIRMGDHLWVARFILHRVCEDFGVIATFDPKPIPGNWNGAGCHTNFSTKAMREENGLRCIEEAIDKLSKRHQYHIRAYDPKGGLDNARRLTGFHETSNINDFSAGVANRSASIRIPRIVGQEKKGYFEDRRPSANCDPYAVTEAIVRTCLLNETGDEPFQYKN
Chain of cortical glutamine synthetase (P09606 2-373 limits assumed): as above
Chain of glutamine synthetase (Macaca mulatta, UniProt F7CAM5) (F7CAM5 1-373): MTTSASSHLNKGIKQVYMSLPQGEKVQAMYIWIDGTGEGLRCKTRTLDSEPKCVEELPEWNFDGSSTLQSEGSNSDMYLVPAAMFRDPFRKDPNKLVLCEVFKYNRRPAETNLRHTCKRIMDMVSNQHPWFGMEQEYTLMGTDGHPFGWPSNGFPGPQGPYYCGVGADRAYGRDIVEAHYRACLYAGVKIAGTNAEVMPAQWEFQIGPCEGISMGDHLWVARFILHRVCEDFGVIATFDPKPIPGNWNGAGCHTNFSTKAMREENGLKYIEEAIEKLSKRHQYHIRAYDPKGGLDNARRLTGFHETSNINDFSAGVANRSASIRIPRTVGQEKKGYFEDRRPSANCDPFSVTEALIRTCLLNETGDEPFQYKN
Chain of γ-glutamylcysteine synthetase (P48508 whole entry partner, one chain of several): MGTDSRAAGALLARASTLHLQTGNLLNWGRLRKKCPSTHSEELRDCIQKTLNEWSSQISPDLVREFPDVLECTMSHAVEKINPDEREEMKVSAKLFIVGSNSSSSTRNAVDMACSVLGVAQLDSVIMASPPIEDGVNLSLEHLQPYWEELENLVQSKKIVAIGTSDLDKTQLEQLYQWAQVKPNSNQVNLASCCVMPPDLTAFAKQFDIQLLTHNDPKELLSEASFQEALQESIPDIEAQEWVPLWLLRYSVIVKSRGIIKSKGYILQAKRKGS

CCCCS(=N)(=O)CCC(N)C(=O)O (centres unmarked) [buthionine sulfoximine]
hyperammonemic brain swelling [1]: did not prevent

CS(=N)(=O)CC[C@H](N)C(=O)O (stereo partly drawn) [LSMSO, L-methionine S-sulfoximine]
glutamine synthetase inhibition at low doses (glutamine synthetase [2]; rats, doses of less than 20 mg/kg): dramatic decrease
state of the rats prior to sacrifice (glutamine synthetase [3]): awake and asymptomatic
brain glutamine levels [4]: lowered
seizures ([4]; LSMSO alone): no seizures

CSCC[C@H](N)C(=O)O [methionine]
protection from the convulsant effect of MSO [5]: protected
MSO-induced seizures on administration of methionine ([6]; monkeys and dogs): suppressed

CS(=N)(=O)CC[C@H](N)C(=O)O (some centres unmarked) [MSO, methionine sulfoximine]
resistance to MSO relative to dogs [7]: approximately 100 times
inhibition of γ-glutamylcysteine synthetase [8]: effective inhibitor
most effective dosage for episodic running behavior to repeated sounds ([9]; cats and rats): 7.5 mg/kg
effect at 10 mg/kg ([9]; cats, 10 mg/kg): early convulsive episodes
amounts that did not render cats susceptible ([9]; cats): less than 5 mg/kg
brain edema [10]: ameliorated
intracranial pressure [10]: did not rise
glutamine synthetase activity (glutamine synthetase [2]; rats, 5 to 200 mg/kg intraperitoneal): decreased in proportion to the dose
toxicity (glutamine synthetase [2]; rats, 5 to 200 mg/kg intraperitoneal, except at the highest dose of 200 mg/kg): no evidence of toxicity
time to raised brain concentration of ammonia (glutamine synthetase [2]; single intraperitoneal injection): ≤ 2 h
inhibition of cortical glutamine synthetase [11]: 64%
prevented increase in cortical glutamine concentration [11]: 13 mmol/kg
tumor regression ([12]; patients with far-advanced, nonresectable cancer): no evidence of tumor regression
hepatic or renal function or hematological status ([12]; patients, divided doses every 6 or 8 hours): no change
inhibition at 72 hours (glutamine synthetase [13]; brain, 72 hours): remains to a considerable degree
persistence of inhibitory effect on glutamine synthetase (glutamine synthetase [13]; brain): a long as seven days
time of maximal inhibition in the brain (glutamine synthetase [13]; single injection): 24 h
cortical glutamine levels (glutamine synthetase [14]; group IV hyperammonemic rats): did not increase
inhibition of glutamine synthetase activity (glutamine synthetase [14]; within the brain): 64%
activity and appetite (glutamine synthetase [15]; one monkey, 2.5 mg/kg, 24 hour period prior to sacrifice): normal
sensitivity to the glutamine synthetase inhibiting effect (glutamine synthetase [15]; primates compared to rats, low doses, FIG. 1): more sensitive
paroxysmal symptoms [16]: did not differ in any way from the control animals
paroxysmal symptoms ([16]; listed as MSI): no paroxysmal symptoms
seizures at highest dose ([16]; 200 mg/kg): had seizures
brain glutamine level versus paroxysmal dose [16]: decreased to the same degree
brain glutamine level versus paroxysmal dose ([16]; listed as MSI): reduced to the same degree
in vivo ammonia toxicity [17]: marked decrease
resistance to MSO relative to dogs ([6]; monkeys vs dogs): approximately 100 times

— patent publication US6875792B2, “Dosage form of L-Methionine S-Sulfoximine” (MSO Pharma LLC, priority 2002, dated 2005)
